Columns and labels:
[1] = molecular target: T1, SmPDE4A (Schistosoma mansoni, UniProt A0ACM8RGL1); test: alamar blue growth assay of T. brucei TbrPDEB1/B2 double knockout dependent on this PDE; assay type: cell-based, Trypanosoma brucei; details: growth read-out of whole trypanosomes, not enzyme assay; HMI-11 medium, 37 °C, 48 h plus 24 h resazurin
T1 construct: gene PDE4A; full length 699 aa, codon-optimised, N-terminal first 70 aa of TbrPDEB1 as targeting tag, C-terminal GFP; expressed in T. b. brucei 2T1 lacking TbrPDEB1/B2
Source text: alamar blue growth assay of T. brucei TbrPDEB1/B2 double knockout dependent on this PDE on SmPDE4A

[2] = molecular target: T2, TbrPDEB2 (Trypanosoma brucei, UniProt Q38F42); test: as above; assay type: cell-based; details: growth read-out of whole trypanosomes, not enzyme assay; HMI-11 medium, 37 °C, 48 h plus 24 h resazurin
T2 construct: gene Tb09.160.3630; full length, C-terminal 6Myc tag, expressed from rRNA locus in T. b. brucei 2T1 lacking endogenous TbrPDEB1/B2
T2 sequence (Q38F42 entry or part of it): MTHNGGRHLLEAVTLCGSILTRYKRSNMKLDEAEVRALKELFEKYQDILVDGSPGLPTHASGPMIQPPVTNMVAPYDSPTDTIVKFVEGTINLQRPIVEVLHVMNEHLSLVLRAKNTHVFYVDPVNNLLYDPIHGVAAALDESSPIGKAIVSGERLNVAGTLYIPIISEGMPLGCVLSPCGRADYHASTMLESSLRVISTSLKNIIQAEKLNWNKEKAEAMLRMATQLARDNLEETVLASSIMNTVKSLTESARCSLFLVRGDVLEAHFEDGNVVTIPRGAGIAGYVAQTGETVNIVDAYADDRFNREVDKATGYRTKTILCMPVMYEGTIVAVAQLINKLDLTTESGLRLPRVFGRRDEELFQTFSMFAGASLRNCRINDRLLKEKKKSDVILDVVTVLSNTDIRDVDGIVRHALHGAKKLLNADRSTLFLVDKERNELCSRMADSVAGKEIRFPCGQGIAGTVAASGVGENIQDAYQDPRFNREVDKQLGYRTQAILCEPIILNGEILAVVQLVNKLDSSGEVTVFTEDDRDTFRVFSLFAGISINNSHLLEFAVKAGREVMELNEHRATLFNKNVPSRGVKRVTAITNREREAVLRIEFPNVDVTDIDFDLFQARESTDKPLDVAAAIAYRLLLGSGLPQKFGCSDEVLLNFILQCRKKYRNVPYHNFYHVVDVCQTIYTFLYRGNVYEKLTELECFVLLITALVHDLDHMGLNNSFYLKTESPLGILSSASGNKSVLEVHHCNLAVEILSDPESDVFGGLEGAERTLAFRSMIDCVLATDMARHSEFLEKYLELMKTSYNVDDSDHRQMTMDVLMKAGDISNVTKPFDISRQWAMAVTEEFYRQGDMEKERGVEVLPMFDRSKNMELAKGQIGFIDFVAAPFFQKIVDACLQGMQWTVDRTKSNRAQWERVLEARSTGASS
Source text: alamar blue growth assay of T. brucei TbrPDEB1/B2 double knockout dependent on this PDE on TbrPDEB2

[3] = tested on: T3, T. b. brucei 2T1 (parental wild type); test: microbe, parasite or virus in culture; parameters: species or system T. b. brucei 2T1 bloodstream form; Alamar blue (resazurin) viability of parental bloodstream-form trypanosomes, fluorescence; details: Trypanosoma brucei, 72 h, read-out: 2T1-WT EC50 (μM)
T3 construct: 2T1, bloodstream form
Protocol: Drug sensitivities were assessed using a modified version of the alamar blue assay described previously. Briefly, test drugs were serially diluted in 100 μl of complete HMI‐11 media across two rows of a white 96-well plate (Greiner, Stonehouse, UK). Bloodstream‐form trypanosome cultures were diluted in HMI‐11, and 100 μl was added to all wells to give a final cell density of 1 × 10^5 trypanosomes/ml. Plates were incubated for 48 h at 37°C/5% CO2, prior to the addition of 20 μl of 5 mM resazurin sodium salt (Sigma‐Aldrich, Gillingham, UK) in PBS, pH7.4. Plates were incubated for a further 24 h in the same conditions, before fluorescence was measured using a FLUOstar Optima fluorimeter (BMG Labtech, Aylesbury, UK) with excitation and emission filters of 544 nm and 590 nm, respectively. […] All EC50 values were determined at least three times independently.

[4] = molecular target: T4, TbrPDEB1 (Trypanosoma brucei, UniProt Q8WQX9); test: alamar blue growth assay of T. brucei TbrPDEB1/B2 double knockout dependent on this PDE; assay type: cell-based; details: growth read-out of whole trypanosomes, not enzyme assay; HMI-11 medium, 37 °C, 48 h plus 24 h resazurin
T4 construct: gene PDEB1; full length, C-terminal 6Myc tag, expressed from rRNA locus in T. b. brucei 2T1 lacking endogenous TbrPDEB1/B2
T4 sequence (Q8WQX9 entry or part of it): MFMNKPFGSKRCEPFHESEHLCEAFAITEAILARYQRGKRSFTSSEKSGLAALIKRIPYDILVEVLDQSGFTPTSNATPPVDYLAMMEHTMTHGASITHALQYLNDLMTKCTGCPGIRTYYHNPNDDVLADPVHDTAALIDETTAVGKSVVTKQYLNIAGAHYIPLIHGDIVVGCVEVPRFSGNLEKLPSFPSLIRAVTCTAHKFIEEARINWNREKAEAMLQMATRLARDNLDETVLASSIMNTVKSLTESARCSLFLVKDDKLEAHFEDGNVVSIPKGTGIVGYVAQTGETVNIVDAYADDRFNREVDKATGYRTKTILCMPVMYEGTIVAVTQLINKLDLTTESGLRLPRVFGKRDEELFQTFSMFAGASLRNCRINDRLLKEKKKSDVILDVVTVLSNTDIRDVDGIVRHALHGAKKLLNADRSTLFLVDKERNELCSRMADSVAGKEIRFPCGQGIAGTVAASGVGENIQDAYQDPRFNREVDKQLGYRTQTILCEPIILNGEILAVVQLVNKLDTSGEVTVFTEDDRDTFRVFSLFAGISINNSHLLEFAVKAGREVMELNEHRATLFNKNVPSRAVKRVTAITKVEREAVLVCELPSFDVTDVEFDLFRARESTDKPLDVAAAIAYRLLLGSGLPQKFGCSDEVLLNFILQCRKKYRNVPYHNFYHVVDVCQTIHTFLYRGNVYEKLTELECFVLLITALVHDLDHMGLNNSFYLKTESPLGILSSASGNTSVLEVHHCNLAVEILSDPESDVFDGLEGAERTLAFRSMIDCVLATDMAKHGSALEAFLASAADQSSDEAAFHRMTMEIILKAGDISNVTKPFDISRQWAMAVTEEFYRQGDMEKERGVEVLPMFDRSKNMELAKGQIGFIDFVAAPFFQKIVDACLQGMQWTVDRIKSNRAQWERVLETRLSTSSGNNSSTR
Source text: alamar blue growth assay of T. brucei TbrPDEB1/B2 double knockout dependent on this PDE on TbrPDEB1

Row | SMILES | dKO+SmPDE4A / EC50 [1] | dKO+TbrPDEB2 EC50 [2] | EC50 [3] | dKO+TbrPDEB1 EC50 [4]
1 | COc1ccc(C2=NN(C3CCCCCC3)C(=O)[C@@H]3CC=CC[C@H]23)cc1OCCCCOc1ccc(-c2nn[nH]n2)cc1 [NPD-001] | 24 ± 3 nM | 84 ± 18 nM | 0.1 ± 0.015 µM | 
2 | COc1ccc(C2=NN(C3CCN(C(=O)CN4C(=O)CC(C)(C)CC4=O)CC3)C(=O)[C@@H]3CC=CC[C@H]23)cc1OC [NPD-226] | 40 ± 4 nM | 82 ± 9 nM | 0.16 ± 0.01 µM | 290 ± 110 nM
3 | N=C(N)c1ccc(OCCCCCOc2ccc(C(=N)N)cc2)cc1 [Pentamidine] |  |  | 0.0012 ± 0.0002 µM | 
4 | COc1cc2c(cc1OC)-c1cc(=Nc3c(C)cc(C)cc3C)n(C)c(=O)n1CC2 [Trequisin] |  |  | 33.2 ± 0.9 µM | 

Source: publication PMC7430754, “Cloning and functional complementation of ten Schistosoma mansoni phosphodiesterases expressed in the mammalian host stages” (PLoS Neglected Tropical Diseases, 2020)
